Laboratory results reported in ChEMBL document CHEMBL5442219.

Key:
Conditions in all cases: Compound concentration 10 µM
[1] = biological target: Beta-1 adrenergic receptor (Homo sapiens) (UniProt P08588)
[2] = biological target: D(1A) dopamine receptor (Homo sapiens) (UniProt P21728)
[3] = biological target: T1, D(4) dopamine receptor (Homo sapiens) (UniProt P21917)
T1 sequence (whole entry): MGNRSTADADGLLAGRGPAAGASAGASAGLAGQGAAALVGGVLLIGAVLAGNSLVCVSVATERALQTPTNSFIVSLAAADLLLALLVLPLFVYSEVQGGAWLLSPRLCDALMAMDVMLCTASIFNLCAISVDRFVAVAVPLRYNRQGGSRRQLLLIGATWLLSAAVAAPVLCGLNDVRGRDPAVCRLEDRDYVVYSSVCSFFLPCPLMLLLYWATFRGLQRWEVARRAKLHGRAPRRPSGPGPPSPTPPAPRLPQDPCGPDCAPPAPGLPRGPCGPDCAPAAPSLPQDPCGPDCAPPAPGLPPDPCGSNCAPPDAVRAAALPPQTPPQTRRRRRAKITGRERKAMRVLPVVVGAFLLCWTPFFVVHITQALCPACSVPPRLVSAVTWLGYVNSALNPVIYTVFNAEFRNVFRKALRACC

[4] = biological target: D(1B) dopamine receptor (Homo sapiens) (UniProt P21918)
[5] = biological target: Histamine H3 receptor (Homo sapiens) (UniProt Q9Y5N1)
[6] = biological target: 5-hydroxytryptamine receptor 2A (Homo sapiens) (UniProt P28223)
[7] = biological target: 5-hydroxytryptamine receptor 2B (Homo sapiens) (UniProt P41595)
[8] = biological target: T2, 5-hydroxytryptamine receptor 3A (Homo sapiens) (UniProt P46098)
T2 sequence (whole entry): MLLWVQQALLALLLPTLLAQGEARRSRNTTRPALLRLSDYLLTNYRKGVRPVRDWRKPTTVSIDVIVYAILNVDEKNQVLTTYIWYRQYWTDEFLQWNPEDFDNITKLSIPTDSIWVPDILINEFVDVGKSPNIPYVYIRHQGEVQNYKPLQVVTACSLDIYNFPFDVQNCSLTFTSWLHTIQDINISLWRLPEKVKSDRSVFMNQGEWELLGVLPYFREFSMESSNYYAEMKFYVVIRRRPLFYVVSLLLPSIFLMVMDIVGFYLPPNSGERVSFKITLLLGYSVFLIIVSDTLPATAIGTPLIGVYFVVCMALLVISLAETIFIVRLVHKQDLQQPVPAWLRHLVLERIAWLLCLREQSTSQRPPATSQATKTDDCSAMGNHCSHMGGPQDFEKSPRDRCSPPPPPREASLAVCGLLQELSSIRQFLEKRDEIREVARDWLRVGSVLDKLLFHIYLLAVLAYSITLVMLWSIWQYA

[9] = biological target: 5-hydroxytryptamine receptor 6 (Homo sapiens) (UniProt P50406)
[10] = biological target: Kappa-type opioid receptor (Homo sapiens) (UniProt P41145)
[11] = biological target: Sigma intracellular receptor 2 (Homo sapiens) (UniProt Q5BJF2)
[12] = biological target: Beta-3 adrenergic receptor (Homo sapiens) (UniProt P13945)
[13] = biological target: Histamine H2 receptor (Homo sapiens) (UniProt P25021)
[14] = biological target: T3, Muscarinic acetylcholine receptor M2 (Homo sapiens) (UniProt P08172)
T3 sequence (whole entry): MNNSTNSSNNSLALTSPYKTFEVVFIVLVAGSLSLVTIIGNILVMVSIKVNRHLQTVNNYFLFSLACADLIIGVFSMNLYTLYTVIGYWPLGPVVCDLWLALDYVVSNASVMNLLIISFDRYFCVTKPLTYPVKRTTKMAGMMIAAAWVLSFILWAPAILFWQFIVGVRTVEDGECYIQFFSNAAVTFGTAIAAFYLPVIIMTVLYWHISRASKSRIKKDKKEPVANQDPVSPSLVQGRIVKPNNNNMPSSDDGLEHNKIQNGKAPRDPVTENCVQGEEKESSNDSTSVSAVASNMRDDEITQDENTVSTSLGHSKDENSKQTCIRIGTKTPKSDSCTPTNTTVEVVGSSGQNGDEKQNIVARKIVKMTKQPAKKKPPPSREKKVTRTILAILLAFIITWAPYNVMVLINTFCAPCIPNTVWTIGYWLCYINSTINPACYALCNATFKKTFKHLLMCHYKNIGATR

[15] = biological target: Muscarinic acetylcholine receptor M3 (Homo sapiens) (UniProt P20309)
[16] = biological target: D(3) dopamine receptor (Homo sapiens) (UniProt P35462)
[17] = biological target: Histamine H4 receptor (Homo sapiens) (UniProt Q9H3N8)
[18] = biological target: 5-hydroxytryptamine receptor 1D (Homo sapiens) (UniProt P28221)
[19] = biological target: Delta-type opioid receptor (Homo sapiens) (UniProt P41143)
[20] = biological target: Sodium-dependent dopamine transporter (Homo sapiens) (UniProt Q01959)
[21] = biological target: Sodium-dependent serotonin transporter (Homo sapiens) (UniProt P31645)
Sodium-dependent serotonin transporter (Homo sapiens), sequence (P31645 whole entry, looked up): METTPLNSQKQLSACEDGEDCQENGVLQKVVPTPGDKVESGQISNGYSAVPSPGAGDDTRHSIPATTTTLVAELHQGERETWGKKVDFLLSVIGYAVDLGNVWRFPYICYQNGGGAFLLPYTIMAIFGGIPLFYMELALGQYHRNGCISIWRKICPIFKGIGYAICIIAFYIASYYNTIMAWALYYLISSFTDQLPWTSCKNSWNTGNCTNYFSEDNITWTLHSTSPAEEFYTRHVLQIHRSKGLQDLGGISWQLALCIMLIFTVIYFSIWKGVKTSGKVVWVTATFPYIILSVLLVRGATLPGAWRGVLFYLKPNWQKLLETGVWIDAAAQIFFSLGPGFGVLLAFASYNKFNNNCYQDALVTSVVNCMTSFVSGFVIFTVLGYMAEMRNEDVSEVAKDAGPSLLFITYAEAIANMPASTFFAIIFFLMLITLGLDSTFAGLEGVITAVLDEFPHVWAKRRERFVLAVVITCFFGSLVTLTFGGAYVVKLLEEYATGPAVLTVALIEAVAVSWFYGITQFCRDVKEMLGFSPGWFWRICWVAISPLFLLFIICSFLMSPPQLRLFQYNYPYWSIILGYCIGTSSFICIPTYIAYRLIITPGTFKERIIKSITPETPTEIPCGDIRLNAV

5-hydroxytryptamine receptor 6 (Homo sapiens), sequence (P50406 whole entry): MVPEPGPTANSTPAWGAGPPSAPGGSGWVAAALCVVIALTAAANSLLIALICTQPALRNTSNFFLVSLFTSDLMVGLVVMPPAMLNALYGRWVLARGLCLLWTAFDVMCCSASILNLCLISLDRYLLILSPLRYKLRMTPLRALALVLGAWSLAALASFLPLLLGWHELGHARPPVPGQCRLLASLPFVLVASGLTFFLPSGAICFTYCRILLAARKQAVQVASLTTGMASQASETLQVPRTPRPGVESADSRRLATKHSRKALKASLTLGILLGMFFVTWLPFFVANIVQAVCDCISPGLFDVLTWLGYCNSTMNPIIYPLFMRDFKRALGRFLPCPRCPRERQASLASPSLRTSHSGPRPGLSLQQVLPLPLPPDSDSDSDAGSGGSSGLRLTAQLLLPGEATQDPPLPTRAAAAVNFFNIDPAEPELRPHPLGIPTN
Sigma intracellular receptor 2 (Homo sapiens), sequence (Q5BJF2 whole entry): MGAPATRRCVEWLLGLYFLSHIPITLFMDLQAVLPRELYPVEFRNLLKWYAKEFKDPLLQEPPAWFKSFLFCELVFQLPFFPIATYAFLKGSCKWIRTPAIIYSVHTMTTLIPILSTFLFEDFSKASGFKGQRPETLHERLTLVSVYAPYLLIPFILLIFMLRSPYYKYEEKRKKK
Beta-1 adrenergic receptor (Homo sapiens), sequence (P08588 whole entry, looked up): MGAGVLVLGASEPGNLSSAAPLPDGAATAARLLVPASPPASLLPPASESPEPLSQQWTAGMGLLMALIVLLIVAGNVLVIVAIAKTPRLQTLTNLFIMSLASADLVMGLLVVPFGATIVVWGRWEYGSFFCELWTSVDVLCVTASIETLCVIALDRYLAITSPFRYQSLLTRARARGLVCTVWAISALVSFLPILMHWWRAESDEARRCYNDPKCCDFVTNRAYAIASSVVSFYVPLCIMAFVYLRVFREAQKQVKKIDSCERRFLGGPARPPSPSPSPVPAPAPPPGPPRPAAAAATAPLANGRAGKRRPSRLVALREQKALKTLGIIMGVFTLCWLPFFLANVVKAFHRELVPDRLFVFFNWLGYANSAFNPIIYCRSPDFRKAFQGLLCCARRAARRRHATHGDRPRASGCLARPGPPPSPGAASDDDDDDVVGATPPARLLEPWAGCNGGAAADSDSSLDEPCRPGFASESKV
5-hydroxytryptamine receptor 2B (Homo sapiens), sequence (P41595 whole entry): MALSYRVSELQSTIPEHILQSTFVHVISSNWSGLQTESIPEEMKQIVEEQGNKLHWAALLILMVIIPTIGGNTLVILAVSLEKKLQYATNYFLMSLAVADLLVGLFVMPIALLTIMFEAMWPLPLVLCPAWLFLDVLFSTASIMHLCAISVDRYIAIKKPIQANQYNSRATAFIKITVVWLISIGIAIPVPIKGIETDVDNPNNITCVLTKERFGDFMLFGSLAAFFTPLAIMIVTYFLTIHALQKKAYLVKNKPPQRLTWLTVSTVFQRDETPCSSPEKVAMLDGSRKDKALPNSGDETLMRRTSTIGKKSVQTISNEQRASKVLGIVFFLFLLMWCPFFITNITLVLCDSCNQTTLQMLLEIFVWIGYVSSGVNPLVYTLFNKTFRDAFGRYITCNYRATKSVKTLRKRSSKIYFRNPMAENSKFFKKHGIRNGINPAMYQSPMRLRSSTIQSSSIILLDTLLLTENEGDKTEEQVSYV
5-hydroxytryptamine receptor 1D (Homo sapiens), sequence (P28221 whole entry): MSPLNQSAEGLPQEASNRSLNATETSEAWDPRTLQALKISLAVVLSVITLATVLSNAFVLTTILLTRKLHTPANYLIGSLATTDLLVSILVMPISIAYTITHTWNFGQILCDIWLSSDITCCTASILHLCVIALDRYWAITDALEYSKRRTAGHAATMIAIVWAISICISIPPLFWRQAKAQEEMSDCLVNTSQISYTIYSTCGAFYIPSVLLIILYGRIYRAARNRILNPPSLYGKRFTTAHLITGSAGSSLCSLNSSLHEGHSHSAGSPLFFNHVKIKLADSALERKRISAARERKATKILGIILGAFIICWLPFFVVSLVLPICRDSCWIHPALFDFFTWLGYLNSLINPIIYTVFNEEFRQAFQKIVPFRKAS
Delta-type opioid receptor (Homo sapiens), sequence (P41143 whole entry): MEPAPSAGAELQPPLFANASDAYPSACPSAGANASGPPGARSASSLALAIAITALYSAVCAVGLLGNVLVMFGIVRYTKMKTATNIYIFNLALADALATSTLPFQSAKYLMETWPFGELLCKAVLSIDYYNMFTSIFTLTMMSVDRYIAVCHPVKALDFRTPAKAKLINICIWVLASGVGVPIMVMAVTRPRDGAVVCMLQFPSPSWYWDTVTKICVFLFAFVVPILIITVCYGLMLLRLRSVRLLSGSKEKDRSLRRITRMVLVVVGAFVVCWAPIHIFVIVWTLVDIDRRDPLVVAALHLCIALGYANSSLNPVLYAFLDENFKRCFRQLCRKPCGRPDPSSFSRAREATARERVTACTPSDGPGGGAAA
Kappa-type opioid receptor (Homo sapiens), sequence (P41145 whole entry): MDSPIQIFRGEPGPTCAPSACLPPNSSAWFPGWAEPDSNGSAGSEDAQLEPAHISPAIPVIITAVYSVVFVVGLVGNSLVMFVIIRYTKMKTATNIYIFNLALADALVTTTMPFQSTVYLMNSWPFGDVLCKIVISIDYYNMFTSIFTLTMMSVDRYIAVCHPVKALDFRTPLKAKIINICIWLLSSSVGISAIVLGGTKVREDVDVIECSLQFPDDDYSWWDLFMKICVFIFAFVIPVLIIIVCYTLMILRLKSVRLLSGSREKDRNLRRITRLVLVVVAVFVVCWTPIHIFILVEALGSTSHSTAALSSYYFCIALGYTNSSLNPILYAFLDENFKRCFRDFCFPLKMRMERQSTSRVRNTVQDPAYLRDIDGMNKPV
Muscarinic acetylcholine receptor M3 (Homo sapiens), sequence (P20309 whole entry, looked up): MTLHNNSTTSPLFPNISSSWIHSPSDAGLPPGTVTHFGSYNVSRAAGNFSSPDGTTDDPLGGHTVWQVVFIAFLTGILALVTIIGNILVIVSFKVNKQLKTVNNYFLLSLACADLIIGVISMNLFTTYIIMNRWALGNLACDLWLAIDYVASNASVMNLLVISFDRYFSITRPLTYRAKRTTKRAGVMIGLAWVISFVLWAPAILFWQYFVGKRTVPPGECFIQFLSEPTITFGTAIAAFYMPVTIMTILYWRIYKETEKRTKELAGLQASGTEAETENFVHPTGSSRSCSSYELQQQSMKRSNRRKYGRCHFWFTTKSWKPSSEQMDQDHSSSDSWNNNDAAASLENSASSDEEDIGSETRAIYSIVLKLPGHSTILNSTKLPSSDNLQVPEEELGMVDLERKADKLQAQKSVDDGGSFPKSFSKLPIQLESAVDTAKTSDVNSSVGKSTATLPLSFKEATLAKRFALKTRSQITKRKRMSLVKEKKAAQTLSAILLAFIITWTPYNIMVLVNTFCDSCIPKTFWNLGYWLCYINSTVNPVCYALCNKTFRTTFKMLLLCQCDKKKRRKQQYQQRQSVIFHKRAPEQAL
5-hydroxytryptamine receptor 2A (Homo sapiens), sequence (P28223 whole entry): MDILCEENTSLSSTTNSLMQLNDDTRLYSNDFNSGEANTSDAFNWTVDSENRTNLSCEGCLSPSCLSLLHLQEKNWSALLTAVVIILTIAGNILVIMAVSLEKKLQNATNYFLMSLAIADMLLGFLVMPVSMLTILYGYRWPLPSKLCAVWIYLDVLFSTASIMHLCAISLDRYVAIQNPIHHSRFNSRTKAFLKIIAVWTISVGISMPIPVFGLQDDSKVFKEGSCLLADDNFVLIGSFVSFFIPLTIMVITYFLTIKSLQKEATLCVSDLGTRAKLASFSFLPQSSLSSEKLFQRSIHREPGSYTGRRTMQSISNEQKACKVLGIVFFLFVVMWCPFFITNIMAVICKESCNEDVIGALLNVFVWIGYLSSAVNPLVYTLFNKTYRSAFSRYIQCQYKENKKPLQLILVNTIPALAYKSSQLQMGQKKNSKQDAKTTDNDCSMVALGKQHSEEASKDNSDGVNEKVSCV
Histamine H2 receptor (Homo sapiens), sequence (P25021 whole entry): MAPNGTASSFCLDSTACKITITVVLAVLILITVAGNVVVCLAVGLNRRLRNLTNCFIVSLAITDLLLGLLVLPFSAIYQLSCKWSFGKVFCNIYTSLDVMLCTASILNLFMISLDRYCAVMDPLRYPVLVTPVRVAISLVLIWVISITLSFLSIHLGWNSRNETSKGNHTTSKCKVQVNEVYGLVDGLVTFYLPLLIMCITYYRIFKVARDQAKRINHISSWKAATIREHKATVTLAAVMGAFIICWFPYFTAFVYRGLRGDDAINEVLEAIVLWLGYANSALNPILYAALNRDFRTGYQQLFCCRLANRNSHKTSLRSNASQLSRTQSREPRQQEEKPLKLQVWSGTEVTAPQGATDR

With C/C(=N\NC(=O)[C@@H]1C(=O)NC[C@H]1c1ccccc1)c1cccc(Br)c1 the inhibition [1] was -3.09%, the inhibition [2] was -9.99% and the inhibition [3] was 2.24%. It also gave an inhibition [4] of -9.13%, an inhibition [5] of 7.14% and an inhibition [6] of 62.6%. It also gave an inhibition [7] of 14.3%, an inhibition [8] of -4.26% and an inhibition [9] of 7.94%. The inhibition [10] was 19.1%, the inhibition [11] was 4.05% and the inhibition [12] was 3.81%. The inhibition [13] was 20.4%.
In the case of N#Cc1ccc2[nH]cc(CCCCN3CCN(c4ccc5oc(C(N)=O)cc5c4)CC3)c2c1, the inhibition [1] is reported as 11.6%, the inhibition [14] is reported as -4.48% and the inhibition [15] is reported as 12.6%. The inhibition [2] was 22.6%, the inhibition [16] was 95.2% and the inhibition [3] was 80.5%. For the same molecule, the inhibition [4] was 36.9%, the inhibition [5] was 31.9% and the inhibition [17] was 24.6%. It also gave an inhibition [18] of 80%, an inhibition [6] of 43% and an inhibition [7] of 101%. For the same molecule, the inhibition [8] was 46.7%, the inhibition [9] was 30.3% and the inhibition [19] was 35.4%. For the same molecule, the inhibition [10] was 30.6%, the inhibition [20] was 99.5% and the inhibition [21] was 96%. It also gave an inhibition [11] of 80.3%.
COc1ccc(C2(O)OC(=O)C(c3ccc4c(c3)OCO4)=C2Cc2cc(OC)c(OC)c(OC)c2)cc1 (stereo unspecified) was tested, and the inhibition [1] was -2.63%, the inhibition [15] was 6.22% and the inhibition [2] was -7.61%. The inhibition [16] was -2.35%, the inhibition [3] was 7.04% and the inhibition [5] was -8.58%. It also gave an inhibition [17] of 14.6%, an inhibition [18] of 21.7% and an inhibition [6] of 12.4%. It also gave an inhibition [9] of -2.9%, an inhibition [10] of 9.13% and an inhibition [20] of 27.4%. It also gave an inhibition [13] of 24.4%.
Work on Cc1ccccc1C(=O)Nc1ccc(C(=O)N2CCCC(O)c3cc(Cl)ccc32)c(C)c1 (stereo unspecified) yielded an inhibition [1] of 12.2%, an inhibition [14] of 2.3% and an inhibition [15] of 17.3%. The inhibition [2] was 9.57%, the inhibition [16] was 33% and the inhibition [3] was 20%. It also gave an inhibition [4] of 8.81%, an inhibition [5] of 6.39% and an inhibition [17] of 3.66%. The inhibition [18] was 88.5%, the inhibition [6] was 12.9% and the inhibition [7] was 74.7%. For the same molecule, the inhibition [8] was -5.18%, the inhibition [9] was 1.21% and the inhibition [19] was 7.13%. It also gave an inhibition [10] of 21%, an inhibition [20] of 21.9% and an inhibition [21] of 10.7%. It also gave an inhibition [11] of 91.8%.
For CCc1cc2c(c(CC)n1)CCC(=O)N2Cc1ccc(-c2ccccc2-c2nnn[nH]2)cc1, the inhibition [2] was -4.14%, the inhibition [16] was 87.1% and the inhibition [3] was 70%. The inhibition [6] was 29.2%, the inhibition [7] was 10.5% and the inhibition [8] was 8.33%. The inhibition [9] was 10.1%, the inhibition [10] was 3.59% and the inhibition [20] was 8.77%. The inhibition [11] was 8.89%, the inhibition [12] was 9.68% and the inhibition [13] was 26.1%.
Work on CCCCN1CCC(COC(=O)c2cc(Cl)c(N)c3c2OCCO3)CC1 yielded an inhibition [1] of 10.7%, an inhibition [14] of 5.99% and an inhibition [15] of 14.6%. It also gave an inhibition [2] of 3.42%, an inhibition [16] of 58.8% and an inhibition [3] of 24.9%. The inhibition [4] was -0.98%, the inhibition [5] was 32.8% and the inhibition [17] was -1.37%. For the same molecule, the inhibition [18] was 54.6%, the inhibition [6] was 62.2% and the inhibition [7] was 68.3%. For the same molecule, the inhibition [8] was 72.4%, the inhibition [9] was 20.1% and the inhibition [19] was 0.6%. The inhibition [10] was 7.01%, the inhibition [20] was 19.5% and the inhibition [21] was 14.6%. For the same molecule, the inhibition [11] was 96.8%.
Molecule Nc1nc2c(c(N3CCNCC3)n1)CCC1=C2[C@@H]2CCCC[C@@H]2O1 has an inhibition [15] of 15.3%, an inhibition [2] of -6.45% and an inhibition [3] of 8.96%. For the same molecule, the inhibition [4] was -1.02%, the inhibition [5] was 34.4% and the inhibition [17] was 89.8%. For the same molecule, the inhibition [18] was 10%, the inhibition [6] was 50.6% and the inhibition [7] was 81.8%. For the same molecule, the inhibition [8] was 98.1%, the inhibition [9] was 17.3% and the inhibition [11] was 36.6%. For the same molecule, the inhibition [12] was 14.4% and the inhibition [13] was 43.4%.
With CC(C)C[C@H](NC(=O)N1CCCCCC1)C(=O)N[C@H](Cc1cn(C)c2ccccc12)C(=O)N[C@H](Cc1ccccn1)C(=O)O the inhibition [1] was -0.82%, the inhibition [16] was 22.6% and the inhibition [4] was -0.58%. For the same molecule, the inhibition [6] was -0.06%, the inhibition [7] was 16% and the inhibition [8] was -9.08%. For the same molecule, the inhibition [10] was -7.75%, the inhibition [20] was -1.54% and the inhibition [11] was 9.3%. For the same molecule, the inhibition [12] was -0.31% and the inhibition [13] was 18%.
In the case of CC(C)NCC(O)c1ccc(N)c(C#N)c1 (stereo unspecified), the inhibition [15] is reported as -7.31%, the inhibition [2] is reported as -2.82% and the inhibition [16] is reported as -2.07%. The inhibition [3] was -4.2%, the inhibition [5] was 3.66% and the inhibition [17] was 0.52%. For the same molecule, the inhibition [6] was 9.46%, the inhibition [9] was 18% and the inhibition [10] was 9.69%. For the same molecule, the inhibition [20] was 29%, the inhibition [11] was 29.6% and the inhibition [12] was 59.9%. The inhibition [13] was 5.77%.
COc1ccccc1CN[C@H]1C2CCN(CC2)[C@H]1C(c1ccccc1)c1ccccc1 showed an inhibition [1] of 17%, an inhibition [15] of 13.3% and an inhibition [16] of 43%. The inhibition [3] was 15.3%, the inhibition [5] was 11.3% and the inhibition [17] was 27.6%. For the same molecule, the inhibition [6] was 13.4%, the inhibition [7] was 0.68% and the inhibition [8] was 13.6%. The inhibition [9] was 8.17%, the inhibition [10] was 49.1% and the inhibition [20] was 40%. It also gave an inhibition [11] of 62.5%, an inhibition [12] of -1.7% and an inhibition [13] of 8.86%.
Molecule NC[C@@H]1O[C@H](C23CC4CC(CC(C4)C2)C3)Cc2c1ccc(O)c2O has an inhibition [1] of -6.91%, an inhibition [14] of -9.03% and an inhibition [15] of 12.7%. For the same molecule, the inhibition [2] was 100%, the inhibition [16] was 81% and the inhibition [3] was 83.8%. The inhibition [4] was 82.7%, the inhibition [5] was 24.8% and the inhibition [17] was -6.56%. The inhibition [18] was 43.5%, the inhibition [6] was 3.87% and the inhibition [7] was 48.1%. For the same molecule, the inhibition [8] was 39.6%, the inhibition [9] was 19.1% and the inhibition [19] was 3.82%. For the same molecule, the inhibition [10] was 12.2%, the inhibition [20] was 68.4% and the inhibition [21] was 28.7%. It also gave an inhibition [11] of 81.7%.
O=C(Nc1ccc(Cl)cc1)Nc1cccc(-c2cccc(N3CCCC3)n2)c1 showed an inhibition [14] of 12.7%, an inhibition [2] of 6.95% and an inhibition [16] of 48.5%. It also gave an inhibition [3] of 5.64%, an inhibition [17] of -1.99% and an inhibition [6] of 11%. For the same molecule, the inhibition [7] was 10.6%, the inhibition [8] was -5.81% and the inhibition [10] was 7.04%. It also gave an inhibition [20] of 18.3%, an inhibition [11] of 6.97% and an inhibition [13] of 20%.
For N#Cc1c(N)nc(SCC(N)=O)c(C#N)c1-c1ccc(OCC2CC2)cc1, the inhibition [14] was -6.03%, the inhibition [16] was -6.34% and the inhibition [3] was 8.04%. For the same molecule, the inhibition [5] was -3.51%, the inhibition [17] was 14.3% and the inhibition [6] was 28.7%. For the same molecule, the inhibition [7] was 12.7%, the inhibition [9] was 3.97% and the inhibition [19] was -1.99%. It also gave an inhibition [10] of 89%, an inhibition [20] of 3.03% and an inhibition [13] of 41.5%.
For Cc1cc(C)cc(C(=O)N(C)[C@H](Cc2ccc(-c3ccccc3)cc2)C(=O)N[C@@H](Cc2c[nH]c3ccccc23)C(=O)O)c1, the inhibition [15] was 0.07%, the inhibition [16] was 3.03% and the inhibition [3] was 11.8%. For the same molecule, the inhibition [17] was -4.33%, the inhibition [6] was 31.2% and the inhibition [7] was -6.62%. For the same molecule, the inhibition [10] was 46.1%, the inhibition [20] was 32.2% and the inhibition [12] was 34.4%. The inhibition [13] was 34.1%.
